Each block holds one compound with its values, some of them ahead of it.
What was measured:
JAK3 = molecular target: T1, JAK3 (Homo sapiens, UniProt P52333); conditions: cited from earlier work
T1 sequence (P52333 1-1124): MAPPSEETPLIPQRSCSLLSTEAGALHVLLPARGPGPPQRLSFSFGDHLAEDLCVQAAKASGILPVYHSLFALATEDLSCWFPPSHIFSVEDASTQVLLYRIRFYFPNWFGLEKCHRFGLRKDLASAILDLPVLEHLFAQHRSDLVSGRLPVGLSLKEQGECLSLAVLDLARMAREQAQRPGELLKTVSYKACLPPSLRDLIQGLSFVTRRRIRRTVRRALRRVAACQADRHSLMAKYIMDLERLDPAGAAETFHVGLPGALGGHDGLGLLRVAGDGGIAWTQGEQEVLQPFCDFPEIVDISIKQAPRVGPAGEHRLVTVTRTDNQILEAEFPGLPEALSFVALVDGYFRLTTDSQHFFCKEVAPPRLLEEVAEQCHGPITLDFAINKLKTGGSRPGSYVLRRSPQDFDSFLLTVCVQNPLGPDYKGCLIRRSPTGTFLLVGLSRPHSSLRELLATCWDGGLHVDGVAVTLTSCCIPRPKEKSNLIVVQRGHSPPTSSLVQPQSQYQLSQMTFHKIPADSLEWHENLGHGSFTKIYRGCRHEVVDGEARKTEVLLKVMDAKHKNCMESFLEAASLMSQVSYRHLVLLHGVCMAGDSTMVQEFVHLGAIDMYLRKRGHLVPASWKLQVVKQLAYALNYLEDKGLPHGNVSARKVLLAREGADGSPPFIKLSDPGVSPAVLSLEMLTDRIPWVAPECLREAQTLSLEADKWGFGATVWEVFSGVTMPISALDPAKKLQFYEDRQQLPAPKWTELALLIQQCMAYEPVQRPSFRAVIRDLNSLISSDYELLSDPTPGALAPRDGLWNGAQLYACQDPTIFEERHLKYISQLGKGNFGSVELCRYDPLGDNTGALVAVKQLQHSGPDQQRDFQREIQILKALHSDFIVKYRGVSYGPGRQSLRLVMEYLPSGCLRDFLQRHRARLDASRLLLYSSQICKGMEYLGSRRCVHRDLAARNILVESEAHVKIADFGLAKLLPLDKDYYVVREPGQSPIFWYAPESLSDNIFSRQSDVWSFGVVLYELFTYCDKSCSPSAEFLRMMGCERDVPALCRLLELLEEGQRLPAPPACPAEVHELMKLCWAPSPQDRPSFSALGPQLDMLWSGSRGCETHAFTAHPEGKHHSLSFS

JAK3 mRNA = test: northern blot analysis of JAK3 expression in human articular chondrocytes; format: cell-based; conditions: 2 ng/ml for 24 hours, normal adult human articular chondrocytes in monolayer
Experimental: Frozen chondrocyte cell strain HC30-0198 (normal human articular chondrocytes prepared as described in Example 1) was thawed, cultured in monolayer (second passage), and cultured to 5 days post confluence. Test cultures were rinsed in phosphate buffered saline (PBS), followed by addition of either; 1) recombinant human interleukin-1β (rhIL-1β) (R&D Systems, Minneapolis, Minn.) at 2 ng/ml for 24 hours in serum-free DMEM containing 1% antibiotic solution, or 2) serum-free DMEM containing 1% antibiotic solution only (control).
RNA on the Northern blot was fixed to the membrane by using a Stratalinker® 1800 UV Crosslinker (Stratagene, La Jolla, Calif.).
A 109-base pair human cDNA for JAK3 was generated by RT-PCR (see Example 2 above).
Prehybridization and hybridization of the Northern blot was performed at 42° C. using a 1:1 dilution of 2× Prehybridization/Hybridization Solution (GIBCO/BRL, Gaithersburg, Md.) and formamide. After 15 hours of hybridization using the JAK3 DNA probe, the blot was successively washed two times in 2×SSC/0.1% SDS (15 minutes/wash at room temperature), and two times in 0.5×SSC/0.1% SDS (30 minutes/wash at 65° C.). The blot was allowed to air dry, and the radioactive signal was visualized using a Fujifilm BAS-1500 phosphorimager (Fuji Medical Systems, USA, Stamford, C1).

chondrocytes = conditions: in vitro; cited from earlier work
[1] = tested on: chondrocytes in culture and explants of articular cartilage; conditions: cited from earlier work
[2] = molecular target: T2, JAK3 (Janus kinase 3) protein tyrosine kinase (Homo sapiens, UniProt P52333); test: poly (Glu, Tyr) 4:1 ELISA, JAK3; format: biochemical; conditions: inhibitors solubilized in DMSO, read-out: ec-50 (effective concentration for 50% inhibition) of JAK3
T2 sequence (P52333 1-1124): T1 sequence (P52333 1-1124)
Experimental: (§1) To further examine the inhibition characteristics of DBH (and its variants) to a variety of cellular components, a poly (Glu, Tyr) 4:1 ELISA was performed. Hymenialdisine (H), DBH (as marine sponge extracts: see Chipman and Faulkner, 1997), and three variant forms of synthetic DBH: the free base form of DBH (DBH-2FB), a trifluoroacetic acid salt form of DBH (DBH-2S), and a methanesulfonic acid salt form of DBH (DBH 1) were solubilized in DMSO, and tested for the ability to inhibit; ZAP-70 (ζ-associated polypeptide of 70 kDa) protein tyrosine kinase, BTK (Bruton's agarnrnaglobulinaemia tyrosine kinase), JAK3 (Janus kinase 3) protein tyrosine kinase, LCK (Lymphoid T-cell protein tyrosine kinase), and IGFR (Insulin-like growth factor receptor) protein tyrosine kinase.
(§2) Maxisorb microtiter plates (Nalge Nunc International, Rochester, N.Y.) were coated with 1 mg/ml Poly(Glu,Tyr) 4:1 (Sigma, St. Louis, Mo.) solubilized in phosphate buffered saline (PBS), 0.02% sodium azide. On the day of the assay, microtiter plates were washed 4× with TBS-Tween (25 mM Tris pH 8.0, 150 mM NaCl, 0.05% Tween 20) using a Skatron plate washer (Skatron Instruments, Sterling, Va.). 200 μl of sterile blocking buffer (3% BSA in PBS, 0.02% sodium azide) was added to each well, and the microtiter plates were incubated at 37° C. for 1 hour. The blocking buffer was removed, the plates washed, and various concentrations of inhibitor were added in a 20 μl volume to the wells. 60 μl of the appropriate substrate mix was then added. Substrate mixes were prepared as described in Table 2:
(§3) Following addition of the substrate mix, 20 μl of the test protein tyrosine kinase (in 1× assay buffer) was added. Kinase reactions were incubated 30 min at 37° C., followed by washes in the Skatron plate washer. 100 μl of biotinylated PT-66 anti-phosphotyrosine monoclonal antibody (Sigma, St. Louis, Mo.) (diluted 1:4000 in 0.5% BSA, sterile-filtered TBS) was added to each well, and incubated for an additional 30 minutes at 37° C. […] The samples were then read at 450 nm in a plate reader.

[3] = molecular target: LCK (Lymphoid T-cell protein tyrosine kinase) (Homo sapiens, UniProt P06239); test: poly (Glu, Tyr) 4:1 ELISA, LCK; format: biochemical; conditions: ec-50 values ranging from hundreds of micromolar to no inhibition (data not shown)
Chain of LCK (Lymphoid T-cell protein tyrosine kinase) (P06239 whole entry, species assumed): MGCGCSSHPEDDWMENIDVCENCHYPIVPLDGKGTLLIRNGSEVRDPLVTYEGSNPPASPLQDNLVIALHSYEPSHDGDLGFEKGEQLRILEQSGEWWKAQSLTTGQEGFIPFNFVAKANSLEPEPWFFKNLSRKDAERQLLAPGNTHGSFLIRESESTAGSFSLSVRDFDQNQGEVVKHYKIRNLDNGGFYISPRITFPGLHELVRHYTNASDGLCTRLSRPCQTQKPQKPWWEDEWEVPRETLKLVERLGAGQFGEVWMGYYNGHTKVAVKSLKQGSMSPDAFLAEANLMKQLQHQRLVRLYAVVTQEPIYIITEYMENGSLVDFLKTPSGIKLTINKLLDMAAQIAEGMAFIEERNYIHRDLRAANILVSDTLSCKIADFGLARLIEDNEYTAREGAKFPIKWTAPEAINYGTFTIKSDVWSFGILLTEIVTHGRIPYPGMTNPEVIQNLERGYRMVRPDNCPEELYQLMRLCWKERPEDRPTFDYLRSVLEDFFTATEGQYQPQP
Experimental: as §1, §2, §3

[4] = molecular target: T3, ZAP-70 (ζ-associated polypeptide of 70 kDa) protein tyrosine kinase (Homo sapiens, UniProt P43403); test: poly (Glu, Tyr) 4:1 ELISA, ZAP-70; format: biochemical; conditions: ec-50 values ranging from hundreds of micromolar to no inhibition (data not shown)
T3 sequence (P43403 1-619): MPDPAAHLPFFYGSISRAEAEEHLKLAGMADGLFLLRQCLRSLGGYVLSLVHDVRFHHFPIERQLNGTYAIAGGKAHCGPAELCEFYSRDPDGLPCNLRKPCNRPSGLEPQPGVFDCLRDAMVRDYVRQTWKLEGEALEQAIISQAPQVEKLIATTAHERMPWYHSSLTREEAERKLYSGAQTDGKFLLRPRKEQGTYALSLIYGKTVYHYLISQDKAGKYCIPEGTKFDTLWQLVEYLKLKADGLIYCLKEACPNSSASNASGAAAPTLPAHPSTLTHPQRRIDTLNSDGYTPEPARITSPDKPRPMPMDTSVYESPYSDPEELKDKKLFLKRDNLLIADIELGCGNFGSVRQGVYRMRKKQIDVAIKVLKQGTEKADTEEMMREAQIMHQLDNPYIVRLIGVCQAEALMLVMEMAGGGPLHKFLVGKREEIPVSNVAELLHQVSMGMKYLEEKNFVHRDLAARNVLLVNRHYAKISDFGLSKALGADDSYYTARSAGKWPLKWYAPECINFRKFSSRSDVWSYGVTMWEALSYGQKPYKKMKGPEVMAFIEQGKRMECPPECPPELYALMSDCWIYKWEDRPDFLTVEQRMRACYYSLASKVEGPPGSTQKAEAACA
Experimental: as §1, §2, §3

[5] = molecular target: IGFR (Insulin-like growth factor receptor) protein tyrosine kinase (Homo sapiens, UniProt P08069); test: poly (Glu, Tyr) 4:1 ELISA, IGFR; format: biochemical; conditions: ec-50 values ranging from hundreds of micromolar to no inhibition (data not shown)
Chain of IGFR (Insulin-like growth factor receptor) protein tyrosine kinase (P08069 31-1367): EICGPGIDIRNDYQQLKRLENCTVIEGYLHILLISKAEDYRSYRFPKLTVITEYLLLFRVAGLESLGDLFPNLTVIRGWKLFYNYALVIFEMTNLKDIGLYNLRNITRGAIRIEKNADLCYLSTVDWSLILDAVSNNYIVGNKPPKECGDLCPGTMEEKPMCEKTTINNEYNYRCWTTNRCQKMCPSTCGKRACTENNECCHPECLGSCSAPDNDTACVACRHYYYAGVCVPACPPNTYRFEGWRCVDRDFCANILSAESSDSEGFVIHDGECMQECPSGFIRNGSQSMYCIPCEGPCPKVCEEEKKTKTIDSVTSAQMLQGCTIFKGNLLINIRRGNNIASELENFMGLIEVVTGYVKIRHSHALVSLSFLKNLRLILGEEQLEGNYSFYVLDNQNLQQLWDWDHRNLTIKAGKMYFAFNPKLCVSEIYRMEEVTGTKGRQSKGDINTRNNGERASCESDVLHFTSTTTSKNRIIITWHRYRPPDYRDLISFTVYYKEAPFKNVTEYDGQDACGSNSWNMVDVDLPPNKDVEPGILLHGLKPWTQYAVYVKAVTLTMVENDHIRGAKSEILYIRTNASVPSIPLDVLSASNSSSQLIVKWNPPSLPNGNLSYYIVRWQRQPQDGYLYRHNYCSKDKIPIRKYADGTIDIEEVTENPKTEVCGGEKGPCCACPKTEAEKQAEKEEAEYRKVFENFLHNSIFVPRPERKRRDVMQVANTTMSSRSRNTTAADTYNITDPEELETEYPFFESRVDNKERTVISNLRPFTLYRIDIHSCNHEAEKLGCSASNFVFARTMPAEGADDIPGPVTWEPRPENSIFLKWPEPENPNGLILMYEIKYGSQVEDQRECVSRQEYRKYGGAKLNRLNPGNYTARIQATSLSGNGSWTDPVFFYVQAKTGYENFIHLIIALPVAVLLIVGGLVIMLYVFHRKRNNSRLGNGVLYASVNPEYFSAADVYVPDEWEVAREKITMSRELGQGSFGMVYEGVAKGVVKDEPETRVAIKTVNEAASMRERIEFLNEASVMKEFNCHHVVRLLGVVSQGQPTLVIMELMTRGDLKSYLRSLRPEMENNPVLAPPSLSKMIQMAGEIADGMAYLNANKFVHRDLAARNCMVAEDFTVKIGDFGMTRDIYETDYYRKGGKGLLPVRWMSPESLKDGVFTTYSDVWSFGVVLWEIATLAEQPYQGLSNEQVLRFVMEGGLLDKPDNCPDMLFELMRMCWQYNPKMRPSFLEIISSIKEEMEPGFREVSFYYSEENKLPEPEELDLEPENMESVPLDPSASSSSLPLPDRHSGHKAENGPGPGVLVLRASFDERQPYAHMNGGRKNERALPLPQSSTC
Experimental: as §1, §2, §3

[6] = molecular target: BTK (Bruton's agarnrnaglobulinaemia tyrosine kinase) (Homo sapiens, UniProt Q06187); test: poly (Glu, Tyr) 4:1 ELISA, BTK; format: biochemical; conditions: ec-50 values ranging from hundreds of micromolar to no inhibition (data not shown)
Chain of BTK (Bruton's agarnrnaglobulinaemia tyrosine kinase) (Q06187 whole entry, species assumed): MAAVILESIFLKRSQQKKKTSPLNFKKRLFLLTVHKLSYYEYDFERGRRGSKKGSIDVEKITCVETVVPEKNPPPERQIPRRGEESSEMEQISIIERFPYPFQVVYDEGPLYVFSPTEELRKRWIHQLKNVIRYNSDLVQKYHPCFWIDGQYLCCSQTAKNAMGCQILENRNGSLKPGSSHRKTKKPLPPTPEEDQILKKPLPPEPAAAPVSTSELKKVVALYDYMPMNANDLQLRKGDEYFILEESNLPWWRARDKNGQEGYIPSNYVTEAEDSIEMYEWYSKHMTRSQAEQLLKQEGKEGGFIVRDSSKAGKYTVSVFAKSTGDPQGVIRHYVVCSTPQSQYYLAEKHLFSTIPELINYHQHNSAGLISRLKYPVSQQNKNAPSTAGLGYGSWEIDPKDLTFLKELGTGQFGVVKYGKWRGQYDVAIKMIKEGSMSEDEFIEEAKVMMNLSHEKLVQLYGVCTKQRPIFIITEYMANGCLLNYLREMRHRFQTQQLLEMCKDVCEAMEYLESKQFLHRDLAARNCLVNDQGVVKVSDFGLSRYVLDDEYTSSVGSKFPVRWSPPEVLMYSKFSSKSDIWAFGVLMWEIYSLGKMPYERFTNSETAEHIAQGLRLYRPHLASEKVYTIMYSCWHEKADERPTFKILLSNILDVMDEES
Experimental: as §1, §2, §3

Compound: COc1cc(C(N)=O)c([N+](=O)[O-])cc1OC [4,5-dimethoxy-2-nitrobenzamide]
inhibition of JAK3 (JAK3): specifically inhibit

Compound: rhIL-1β: recombinant human interleukin-1β (R&D Systems)
effect on the level of JAK3 mRNA (JAK3 mRNA): neither increases nor decreases

Compound: CO[C@H]1[C@@H](OC)C[C@H](C)[C@@H](OC)C2=CC(=O)C=C(NC(=O)/C(C)=C/C=C\[C@H](OC)[C@@H](OC(N)=O)/C(C)=C/[C@@H]1C)C2=O [herbimycin A]
effect on cartilage degradation by chondrocytes (chondrocytes): reduce or prevent

Compound: O=c1c(-c2ccc(O)cc2)coc2cc(O)cc(O)c12 [genistein]
effect on cartilage degradation by chondrocytes (chondrocytes): reduce or prevent

EC50 [2]: 2.6 to 10.7 µM
Inhibition of LCK [3]: weak
Inhibition of ZAP-70 [4]: weak
Inhibition of IGFR [5]: weak
Inhibition of BTK [6]: weak
Compound: NC1=NC(=O)C(=C2CCNC(=O)c3[nH]c(Br)cc32)N1 [H, 4-(2-amino-4-oxo-2-imidazolin-5-ylidene)-2-bromo-4,5,6,7-tetrahydropyrrolo (2,3-c) azepine-8-one]
inhibition of IL-1 induced degradation of glycosaminoglycan and extracellular matrix [1]: inhibit

Compound: O=C1NC(=O)c2cc(Nc3ccccc3)c(Nc3ccccc3)cc21 [DAPH, 4,5-dianilinophthalimide]
effect on cartilage degradation by chondrocytes (chondrocytes): reduce or prevent

Compound: N#C/C(=C\c1ccc(O)c(O)c1)C(=O)NCCCCc1ccccc1 [tyrphostin AG 556]
effect on cartilage degradation by chondrocytes (chondrocytes): reduce or prevent

Compound: COc1cc(C(=O)O)c([N+](=O)[O-])cc1OC [4,5-dimethoxy-2-nitrobenzoic acid]
inhibition of JAK3 (JAK3): specifically inhibit

Compound: N#CC(C#N)=Cc1cc(O)c(O)c(O)c1 [tyrphostin AG 82]
effect on cartilage degradation by chondrocytes (chondrocytes): reduce or prevent
